We go through three compounds from patent US7666884B2, “N-(2-substituted phenyl)-N-methoxycarbamates and their preparation and use thereof” (priority 2005, dated 2010).

The subject of data set [1] is wheat powdery mildew. As to the kind of experiment: Curative activity test against wheat powdery mildew. The format is in vivo. Particulars: for control %: curative, sprayed 4 days after inoculation.
The next data set concerns Rice sheath blight. In words: In vitro fungicidal activity test, PDA mycelium growth inhibition method. It counts as cell-based.
In the next data set the test system is Rice blast. As to the kind of experiment: microbe, parasite or virus in culture. It counts as cell-based.
Another data set deals with Rice false smut. In words: In vitro fungicidal activity test, PDA mycelium growth inhibition method. It counts as cell-based.
Data set [2] relates to wheat powdery mildew. In words: Fungicidal activity tests against wheat powdery mildew (wheat seedlings sprayed at 200 mg/L, greenhouse). The format is in vivo. The note with it: 200 mg/L spray, inoculated 24 hours later, visual assessment 7 days after treatment. Here is the method:
Compounds for test were weighed quantitatively and dissolved into acetone of suitable volume (acetone's volume is 10% of the whole solution's volume), then diluted by water containing 0.1% (volume percent, the same below) Tween 80, into 200 mg/L. By turntable crop sprayer, wheat seedlings with 1 leaf and 1 core were treated under the spray pressure of 1.5 kg/cm^2 and the spray volume of about 1000 L/hm^2, then naturally dry, 24 hours later wheat powdery mildew spore was inoculated, and then continue being incubated in greenhouse. Assessment of efficacy was carried out by visual observation 7 days later after treatment.

The subject of the next data set is Wheat root rot. As to the kind of experiment: In vitro fungicidal activity test, PDA mycelium growth inhibition method. It counts as cell-based. Here is the method:
(§1) PDA mycelium growth inhibition method was used for this test. Compound 13 (content 95%) was weighed quantitatively and dissolved in acetone of suitable volume (acetone's volume is 10% of the whole solution's volume), then diluted with water containing 0.1% Tween 80 into the solution of the medicament at the needed concentration, and then diluted with the same water into a series of concentration for tests. The medicament for test diluted by water was added quantitatively into the heating full-nutrition culture medium, to form culture medium including the medicament at a series of concentration, and then poured into 9-cm culture dish, after cooling, inoculated with the pathogen cake (diameter 0.5 cm) for test which was incubated in vitro, each treatment was repeated tree times. After treatment, placed in growth chamber in 27° C., 3-4 days later, observe the growth of the blank contrast fungi colony, the diameter of fungi colony was investigated and measured, and corrected inhibition ratio was calculated.

A further data set has as its system Cucumber scab. The description is as above. The format is cell-based. Here is the method:
as §1

Data set [3] has as its system Wheat Fusarium Head Blight. As to the kind of experiment: microbe, parasite or virus in culture. The format is cell-based. Particulars: read-out: Effect of mycelium growth inhibition (%).
Data set [4] deals with corn curvalaria leaf spot. In words: In vitro fungicidal activity test, PDA mycelium growth inhibition method. It counts as cell-based.
The test system of the next data set is Cucumber anthracnose. Described as above. The format is cell-based.
In another data set the test system is Cucumber wilt blight. The data set is described as above. The format is cell-based. Particulars: 27° C., 3-4 days, read-out: Effect of mycelium growth inhibition (%).
For data set [5], the system named is wheat powdery mildew. In words: Protective activity test against wheat powdery mildew. It counts as in vivo. The note with it: for control %: protective, assessed 7 days later.
Where [6] appears, read: Pyricularia oryzae, read-out: Effect of mycelium growth inhibition (%).
[7] abbreviates: 0.1 mg/L, 27° C., 3-4 days, read-out: Effect of mycelium growth inhibition (%).
Where [8] appears, read: 1 mg/L, 27° C., 3-4 days, read-out: Effect of mycelium growth inhibition (%).
Where [9] appears, read: 10 mg/L, 27° C., 3-4 days, read-out: Effect of mycelium growth inhibition (%).

Consider `COC(=O)N(OC)c1ccccc1COc1nc(Cl)c(Cl)cc1Cl` [Compound 13, Methyl N-methoxy-N-(2-((3,5,6-trichloropyridin-2-yl)oxymethyl)phenyl)carbamate], for which the melting point (commonly the temperature of the solid-liquid transition) was 94 to 95 °C. For the same compound, the control % in the data set on wheat powdery mildew [1] (concentration 0.78 mg/L) was determined as 10%. In the data set with wheat powdery mildew [1] (concentration 1.56 mg/L), the control % was found to be 35%. In the data set on wheat powdery mildew [1] (concentration 3.125 mg/L), this compound displayed a control % of 70%. For the same compound, in the data set on wheat powdery mildew [1] (concentration 6.25 mg/L), the control % worked out at 100%. The control % with wheat powdery mildew [1] (concentration 12.5 mg/L) worked out at 100%. Besides, the “curative activity compared with the standard chemical (in words)” value with wheat powdery mildew [1] (versus kresoxim-methyl) is listed as “better than the one of standard chemical”. For the same compound, the inhibition (usually the drop in the measured response relative to a control, in per cent) at 0.1 µg/mL with Rice sheath blight (Rice sheath blight, 0.1 mg/L, 27° C., 3-4 days, read-out: Effect of mycelium growth inhibition (%)) turned out to be 42.7%. Besides, the inhibition at 1 µg/mL in the data set with Rice sheath blight (Rice sheath blight, 1 mg/L, 27° C., 3-4 days, read-out: Effect of mycelium growth inhibition (%)) came to 59.2%. The inhibition at 10 µg/mL in the data set on Rice sheath blight (Rice sheath blight, 10 mg/L, 27° C., 3-4 days, read-out: Effect of mycelium growth inhibition (%)) came to 78.6%. For the same compound, the “fungicidal activity (in words)” value in the data set with Rice sheath blight (rice sheath blight, in vitro) is on record as “outstanding”. Moreover, in the data set on Rice blast (setting [6]), the inhibition at 0.1 µg/mL was found to be 36.6%, the inhibition at 1 µg/mL came out at 62.6% and the inhibition at 10 µg/mL came out at 77.2%. In addition, the “fungicidal activity (in words)” value in the data set with Rice blast (rice blast, in vitro) is reported as “outstanding”. In addition, the inhibition at 0.1 µg/mL in the data set on Rice false smut (Rice false smut, 0.1 mg/L, 27° C., 3-4 days, read-out: Effect of mycelium growth inhibition (%)) worked out at 19.5%. The inhibition at 1 µg/mL in the data set on Rice false smut (Rice false smut, 1 mg/L, 27° C., 3-4 days, read-out: Effect of mycelium growth inhibition (%)) turned out to be 42.8%. The inhibition at 10 µg/mL in the data set with Rice false smut (Rice false smut, 10 mg/L, 27° C., 3-4 days, read-out: Effect of mycelium growth inhibition (%)) was determined as 79.2%. Moreover, the “fungicidal activity (in words)” value in the data set on Rice false smut (rice false smut, in vitro) is “outstanding”. The “control %” value with wheat powdery mildew [2] is recorded as 100%. The inhibition at 0.1 µg/mL with Wheat root rot (Wheat root rot, 0.1 mg/L, 27° C., 3-4 days, read-out: Effect of mycelium growth inhibition (%)) was determined as 32.6%. The inhibition at 1 µg/mL in the data set on Wheat root rot (Wheat root rot, 1 mg/L, 27° C., 3-4 days, read-out: Effect of mycelium growth inhibition (%)) came to 46.3%. For the same compound, in the data set on Wheat root rot (Wheat root rot, 10 mg/L, 27° C., 3-4 days, read-out: Effect of mycelium growth inhibition (%)), the inhibition at 10 µg/mL turned out to be 61.1%. The “fungicidal activity (in words)” value with Wheat root rot (wheat root rot, in vitro) is “outstanding”. Moreover, in the data set on Cucumber scab (setting [7]), the inhibition at 0.1 µg/mL worked out at 28.7%. For the same compound, the inhibition at 1 µg/mL in the data set on Cucumber scab (setting [8]) was determined as 50%. In the data set with Cucumber scab (setting [9]), the inhibition at 10 µg/mL was found to be 65%. Moreover, in the data set on Cucumber scab (in vitro), the “fungicidal activity (in words)” value is recorded as “outstanding”. In data set [3], the inhibition at 0.1 µg/mL came to 20.3%, the inhibition at 1 µg/mL is 21.1% and the inhibition at 10 µg/mL turned out to be 42.9%. For the same compound, in data set [4] (setting [7]), the inhibition at 0.1 µg/mL is 55.4%. The inhibition at 1 µg/mL in [4] (setting [8]) amounted to 56.2%. Moreover, in [4] (setting [9]), the inhibition at 10 µg/mL was 70.2%. In addition, the “fungicidal activity (in words)” value in data set [4] (in vitro) was “outstanding”. For the same compound, the inhibition at 0.1 µg/mL in the data set with Cucumber anthracnose (Cucumber anthracnose, 0.1 mg/L, 27° C., 3-4 days, read-out: Effect of mycelium growth inhibition (%)) amounted to 42.8%. In addition, the inhibition at 1 µg/mL in the data set on Cucumber anthracnose (Cucumber anthracnose, 1 mg/L, 27° C., 3-4 days, read-out: Effect of mycelium growth inhibition (%)) is 62.8%. In addition, the inhibition at 10 µg/mL in the data set on Cucumber anthracnose (Cucumber anthracnose, 10 mg/L, 27° C., 3-4 days, read-out: Effect of mycelium growth inhibition (%)) was found to be 72.4%. The “fungicidal activity (in words)” value with Cucumber anthracnose (cucumber anthracnose, in vitro) is “outstanding”. Also, the inhibition at 0.1 µg/mL with Cucumber wilt blight (0.1 mg/L) turned out to be 27.1%. In addition, the inhibition at 1 µg/mL in the data set with Cucumber wilt blight (1 mg/L) turned out to be 33.6%. Further, the inhibition at 10 µg/mL with Cucumber wilt blight (10 mg/L) is 51.4%. The compound also returned a control % in the data set on wheat powdery mildew [5] (concentration 0.78 mg/L) of 100%. In the data set on wheat powdery mildew [5] (concentration 1.56 mg/L), this compound yielded a control % of 100%. In the data set on wheat powdery mildew [5] (concentration 3.125 mg/L), this compound returned a control % of 100%. The control % with wheat powdery mildew [5] (concentration 6.25 mg/L) is on record as 100%. In addition, the control % with wheat powdery mildew [5] (concentration 12.5 mg/L) is recorded as 100%. Moreover, in the data set with wheat powdery mildew [5] (versus Kresoxim-methyl, 0.78-12.5 mg/L), the “preventative activity compared with the standard chemical (in words)” value is on record as “obviously better than the one of the standard chemical”.
In turn, `COC(=O)N(OC)c1ccccc1CNc1c(Cl)c(F)nc(F)c1Cl` [Compound 49, Methyl N-(2-((3,5-dichloro-2,6-difluoropyridin-4-yl)aminomethyl)phenyl)-N-methoxycarbamate] yielded a melting point of 82 to 83 °C. Besides, in the data set on wheat powdery mildew [2], the “control %” value worked out at 85%.
For the compound `CO/N=C(/C(=O)OC)c1ccccc1COc1ccccc1C` [Kresoxim-methyl, reference compound], the control % in the data set on wheat powdery mildew [1] (concentration 0.78 mg/L) was determined as 0%; in the data set with wheat powdery mildew [1] (concentration 1.56 mg/L), 10%; in the data set with wheat powdery mildew [1] (concentration 3.125 mg/L), 15%; in the data set on wheat powdery mildew [1] (concentration 6.25 mg/L), 75%; in the data set on wheat powdery mildew [1] (concentration 12.5 mg/L), 100%; in the data set with wheat powdery mildew [5] (concentration 0.78 mg/L), 15%. Besides, the control % with wheat powdery mildew [5] (concentration 1.56 mg/L) was found to be 40%; with wheat powdery mildew [5] (concentration 3.125 mg/L) it was 70%; with wheat powdery mildew [5] (concentration 6.25 mg/L), 98%; with wheat powdery mildew [5] (concentration 12.5 mg/L), 100%.
